In PubChem BioAssay AID1963969 (Molecular Pharmacology Branch, DTP, NCI, 2024):

Tested on: 817829-284-R-J1-PDC multi-cell spheroid viability
Assay: Anticancer human tumor 817829-284-R-J1-PDC patient-derived colon adenocarcinoma cell line growth inhibition [PI3K]
Conditions: for IC50: curve of first compound; for viability, T/C: stronger effect = lower value; active = viability on the fitted dose curve at most 10% of control; inactive = the rest
In short: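 Three cell types, namely tumor cells, endothelial cells and mesenchymal stem cells, formed each spheroid. Combinations with four PI3K inhibitors were screened at clinically achievable concentrations decreasing by half-log, and spheroid viability was recorded.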

[1] = second compound 0.0316 µM, first compound 0.0316 µM
[2] = second compound 0.0316 µM, first compound 0.1 µM
[3] = second compound 0.0316 µM, first compound 0.316 µM
[4] = second compound 0.0316 µM, first compound 1 µM
[5] = second compound 0.0316 µM, first compound 3.16 µM
[6] = second compound 0.0316 µM, first compound 10 µM
[7] = second compound 0.1 µM, first compound 0.0316 µM
[8] = second compound 0.1 µM, first compound 0.1 µM
[9] = second compound 0.1 µM, first compound 0.316 µM
[10] = second compound 0.1 µM, first compound 1 µM
[11] = second compound 0.1 µM, first compound 3.16 µM
[12] = second compound 0.1 µM, first compound 10 µM
[13] = second compound 0.316 µM, first compound 0.0316 µM
[14] = second compound 0.316 µM, first compound 0.1 µM
[15] = second compound 0.316 µM, first compound 0.316 µM
[16] = second compound 0.316 µM, first compound 1 µM
[17] = second compound 0.316 µM, first compound 3.16 µM
[18] = second compound 0.316 µM, first compound 10 µM
[19] = second compound 1 µM, first compound 0.0316 µM
[20] = second compound 1 µM, first compound 0.1 µM
[21] = second compound 1 µM, first compound 0.316 µM
[22] = second compound 1 µM, first compound 1 µM
[23] = second compound 1 µM, first compound 3.16 µM
[24] = second compound 1 µM, first compound 10 µM
[25] = second compound 3.16 µM, first compound 0.0316 µM
[26] = second compound 3.16 µM, first compound 0.1 µM
[27] = second compound 3.16 µM, first compound 0.316 µM
[28] = second compound 3.16 µM, first compound 1 µM
[29] = second compound 3.16 µM, first compound 3.16 µM
[30] = second compound 3.16 µM, first compound 10 µM
[31] = second compound 10 µM, first compound 0.0316 µM
[32] = second compound 10 µM, first compound 0.1 µM
[33] = second compound 10 µM, first compound 0.316 µM
[34] = second compound 10 µM, first compound 1 µM
[35] = second compound 10 µM, first compound 3.16 µM
[36] = second compound 10 µM, first compound 10 µM
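Also: spheroids exposed to agents for seven days before readout.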
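For viability, T/C in this document: percent of vehicle DMSO control viability which is 100%.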

C=CC(=O)N1CCN(c2nc(=O)n(-c3c(C)ccnc3C(C)C)c3nc(-c4c(O)cccc4F)c(F)cc23)C(C)C1 (stereo not drawn) + Cc1nc(NC(=O)N2CCCC2C(N)=O)sc1-c1ccnc(C(C)(C)C(F)(F)F)c1
> 10 µM: IC50 (second compound 0.0316 µM) | IC50 (second compound 3.16 µM)
6.27 µM: IC50 (second compound 1 µM)
5.98 µM: IC50 (second compound 0.1 µM)
0.0565 µM: IC50 (second compound 10 µM)
inactive: viability, T/C [1] 75.1% | viability, T/C [2] 75.8% | viability, T/C [3] 114% | viability, T/C [4] 77% | viability, T/C [5] 91% | viability, T/C [6] 54.7% | viability, T/C [7] 68.7% | viability, T/C [8] 70.2% | viability, T/C [9] 68.1% | viability, T/C [10] 53.5% | viability, T/C [11] 91.9% | viability, T/C [12] 33.6% | viability, T/C [13] 80.1% | viability, T/C [14] 63.8% | viability, T/C [15] 95.7% | viability, T/C [16] 55.7% | viability, T/C [17] 66% | viability, T/C [18] 41.2% | viability, T/C [19] 81.5% | viability, T/C [20] 65.3% | viability, T/C [21] 84.3% | viability, T/C [22] 63.1% | viability, T/C [23] 92.3% | viability, T/C [24] 31.4% | viability, T/C [25] 71.2% | viability, T/C [26] 61.8% | viability, T/C [27] 55.3% | viability, T/C [28] 75.8% | viability, T/C [29] 85.2% | viability, T/C [30] 50.9% | viability, T/C [31] 51.5% | viability, T/C [32] 49.2% | viability, T/C [33] 40.8% | viability, T/C [34] 51.6% | viability, T/C [35] 51.1% | viability, T/C [36] 37.4%
6.17 µM: IC50 (second compound 0.316 µM)

CC(Cn1ccc(-c2ccc(C#N)c(Cl)c2)n1)NC(=O)c1cc(C(C)O)[nH]n1 (stereo not drawn) + Cc1nc(NC(=O)N2CCCC2C(N)=O)sc1-c1ccnc(C(C)(C)C(F)(F)F)c1
2.62 µM: IC50 (second compound 1 µM)
> 10 µM: IC50 (second compound 0.0316 µM) | IC50 (second compound 0.316 µM) | IC50 (second compound 3.16 µM)
< 0.0316 µM: IC50 (second compound 0.1 µM) | IC50 (second compound 10 µM)
inactive: viability, T/C [1] 72.1% | viability, T/C [2] 92.1% | viability, T/C [3] 118% | viability, T/C [4] 82.5% | viability, T/C [5] 64.8% | viability, T/C [6] 67.4% | viability, T/C [7] 42.2% | viability, T/C [8] 81.5% | viability, T/C [9] 96.1% | viability, T/C [10] 103% | viability, T/C [11] 85.2% | viability, T/C [12] 71.1% | viability, T/C [13] 56.9% | viability, T/C [14] 94.3% | viability, T/C [15] 72.3% | viability, T/C [16] 72.1% | viability, T/C [17] 75.8% | viability, T/C [18] 54.4% | viability, T/C [19] 53.1% | viability, T/C [20] 89.8% | viability, T/C [21] 80.5% | viability, T/C [22] 71.5% | viability, T/C [23] 42.1% | viability, T/C [24] 49.5% | viability, T/C [25] 66.7% | viability, T/C [26] 55.2% | viability, T/C [27] 50.1% | viability, T/C [28] 89.7% | viability, T/C [29] 42% | viability, T/C [30] 57.2% | viability, T/C [31] 55.8% | viability, T/C [32] 31.7% | viability, T/C [33] 47.2% | viability, T/C [34] 40.9% | viability, T/C [35] 59.4% | viability, T/C [36] 35%

CC1(C)CCC(Nc2ncc(C(F)(F)F)c(-c3c[nH]c4c(P(C)(C)=O)c(C#N)ccc34)n2)CN1 (stereo not drawn) + Cc1nc(NC(=O)N2CCCC2C(N)=O)sc1-c1ccnc(C(C)(C)C(F)(F)F)c1
< 0.0316 µM: IC50 (second compound 0.0316 µM) | IC50 (second compound 0.1 µM) | IC50 (second compound 0.316 µM) | IC50 (second compound 1 µM) | IC50 (second compound 3.16 µM) | IC50 (second compound 10 µM)
inactive: viability, T/C [1] 30.4% | viability, T/C [2] 24.9% | viability, T/C [3] 26.7% | viability, T/C [4] 32.1% | viability, T/C [5] 30.8% | viability, T/C [6] 1.2% | viability, T/C [7] 27.2% | viability, T/C [8] 24.7% | viability, T/C [9] 32.2% | viability, T/C [10] 39.8% | viability, T/C [11] 28.7% | viability, T/C [12] 1.28% | viability, T/C [13] 25% | viability, T/C [14] 27.7% | viability, T/C [15] 26.9% | viability, T/C [16] 25.9% | viability, T/C [17] 32.7% | viability, T/C [18] 1.02% | viability, T/C [19] 26.6% | viability, T/C [20] 26.6% | viability, T/C [21] 31.8% | viability, T/C [22] 33.4% | viability, T/C [23] 30.6% | viability, T/C [24] 1.41% | viability, T/C [25] 29.6% | viability, T/C [26] 26.2% | viability, T/C [27] 28.6% | viability, T/C [28] 28.7% | viability, T/C [29] 29% | viability, T/C [30] 0.82% | viability, T/C [31] 23.9% | viability, T/C [32] 28.4% | viability, T/C [33] 24.6% | viability, T/C [34] 21.3% | viability, T/C [35] 21.2%
active: viability, T/C [36] 0.69%

Cn1nccc1Nc1nccc(-c2ccn(C(CO)c3ccc(Cl)c(F)c3)c(=O)c2)n1 (stereo not drawn) + Cc1nc(NC(=O)N2CCCC2C(N)=O)sc1-c1ccnc(C(C)(C)C(F)(F)F)c1
inactive: viability, T/C [1] 83% | viability, T/C [2] 66.9% | viability, T/C [3] 92.2% | viability, T/C [4] 90.7% | viability, T/C [5] 81.6% | viability, T/C [6] 41.6% | viability, T/C [7] 79.8% | viability, T/C [8] 77.3% | viability, T/C [9] 76.3% | viability, T/C [10] 75.3% | viability, T/C [11] 63.2% | viability, T/C [12] 26.6% | viability, T/C [13] 87.8% | viability, T/C [14] 99.5% | viability, T/C [15] 72% | viability, T/C [16] 74.6% | viability, T/C [17] 81.6% | viability, T/C [18] 30.6% | viability, T/C [19] 68.6% | viability, T/C [20] 69% | viability, T/C [21] 62.1% | viability, T/C [22] 107% | viability, T/C [23] 60.9% | viability, T/C [24] 28.5% | viability, T/C [25] 54.2% | viability, T/C [26] 102% | viability, T/C [27] 86.1% | viability, T/C [28] 87.3% | viability, T/C [29] 67.3% | viability, T/C [30] 21.6% | viability, T/C [31] 109% | viability, T/C [32] 103% | viability, T/C [33] 101% | viability, T/C [34] 94.2% | viability, T/C [35] 69% | viability, T/C [36] 16.4%
7.87 µM: IC50 (second compound 0.0316 µM)
4.65 µM: IC50 (second compound 1 µM)
4.8 µM: IC50 (second compound 0.1 µM)
6.44 µM: IC50 (second compound 0.316 µM)
4.81 µM: IC50 (second compound 10 µM)
4.88 µM: IC50 (second compound 3.16 µM)
